The text below walks through data of US20260248920A1, “COMPOSITION FOR PREVENTING OR TREATING INFLAMMATORY DISEASES, CONTAINING POLY(ORGANOPHOSPHAZENE) POLYMER” (KOREA INSTITUTE OF SCIENCE AND TECHNOLOGY, priority 2022, published 2026).

Data set [1] has as its system anti-inflammatory cytokines IL-4 and IL-10. Nature of the data set: RT-PCR of blood in defective Achilles tendon model: anti-inflammatory cytokines. Format: in vivo, mice. Particulars: 4 weeks.
The test system of data set [2] is defective Achilles tendon model. Put plainly: Hydroxyproline content analysis of tendon tissue. In kind it is in vivo, mouse. The method, then: All experiments using mice were conducted in compliance with the relevant laws and institutional guidelines of the Institutional Animal Care and Use Committee (IACUC) of Korea University Medical Center and received IACUC approval (Approval No. KOREA-2018-0049). […] […] 1 mg) and […] […] To hydrolyze the tendon tissue, 5 mg was immersed in a 6N HCl solution and then heated at 120° C. for 3 hours. After hydrolysis, the tendon tissue was centrifuged at 3000 rpm for 3 minutes, and the supernatant was collected and transferred to a 96-well plate. Thereafter, the 96-well plate was incubated in a dry oven at 60° C. for 12 hours. A Chloramine T reagent (6 μL) was mixed with an oxidation buffer (94 μL), and the mixture was added to each sample or a standard solution. The resulting solution was slowly transferred to a 96-well plate, and a p-dimethylaminobenzaldehyde reagent (100 μL) was added to each sample or standard, and then incubated at 60° C. for 90 minutes. The hydroxyproline content was measured at an optical density of […] using a Flash Multimode Reader (VarioskanTM, Thermo Scientific, USA).

The test system is the same in data set [3]. Put plainly: Biomechanical test of Achilles tendon (stiffness, tensile strength). In kind it is in vivo, rats.
For data set [4] the following is noted: cited from earlier work.
The conditions of data set [5]: in vivo; cited from earlier work.

Read-outs that look alike come from different tables or passages of the source.

The term half-life denotes the time in which the quantity being followed falls by half.

For `Cc1ccc(-c2cc(C(F)(F)F)nn2-c2ccc(S(N)(=O)=O)cc2)cc1` [CXB, Celecoxib], the entries for the “IL-4 expression increase compared with control group” value in data set [1] (treated once) and in data set [1] (treated three times) were 1.2 fold and 1.3 fold, respectively. Also, the figures for the “IL-10 expression increase compared with control group” value in data set [1] (treated once) and in data set [1] (treated three times) were 1.3 fold and 1.5 fold, respectively. The hydroxyproline content in data set [2] (injected once per week) was found to be 15.3 µg/mg; in data set [2] (injected three times per week), 17.2 µg/mg. The stiffness in data set [3] (injected once per week) is recorded as 16.4 N/mm; in data set [3] (injected three times per week), 18.6 N/mm. In addition, in data set [3] (injected once per week), the tensile strength is reported as 12.5 MPa.

As to `CC1(C)O[C@@H]2C[C@H]3[C@@H]4CCC5=CC(=O)C=C[C@]5(C)[C@@]4(F)[C@@H](O)C[C@]3(C)[C@]2(C(=O)CO)O1` [TCA, triamcinolone acetonide], in data set [4] (in vivo), the half-life was 1.47 h. Moreover, the “half-life of TCA without a delivery carrier” value in data set [5] is 1.27 h.

With `O=C(O)Cc1ccccc1Nc1c(Cl)cccc1Cl` [diclofenac], in data set [4] (direct IA administration, reported by Larsen et al.), the half-life was 5.2 h.
